The test system of experiment [1] is H9c2. Briefly: Inhibition of H2O2-induced loss of cell viability in rat H9c2 cells at 5,10 and 20 uM after 24 hrs by MTT assay. The format is functional, cell-based.
The subject of experiment [2] is H9c2. Briefly: Upregulation of ER-beta expression in rat H9c2 cells after 24 hrs by western blot analysis. Type of experiment: functional, cell-based.
Experiment [3] has as its target T1, Estrogen receptor (Rattus norvegicus) (UniProt P06211+Q62986). In words: Activation of ER-alpha/beta in rat H9c2 cells assessed as increase in phosphorylated Akt level after 24 hrs by western blot analysis. Type of experiment: cell-based.
In experiment [4] the test system is H9c2. Briefly: Inhibition of H2O2-induced apoptosis in rat H9c2 cells after 24 hrs by AO/EB staining based fluorescence microscopic analysis. Type of experiment: functional, cell-based.
Experiment [5] has as its system H9c2. Briefly: Inhibition of H2O2-induced apoptosis in rat H9c2 cells at 5,10 and 20 uM after 24 hrs by AO/EB staining based fluorescence microscopic analysis in presence of ER inhibitor ICI182780. The format is functional, cell-based.
Experiment [6] deals with H9c2. Briefly: Inhibition of H2O2-induced loss of cell viability in rat H9c2 cells at 5,10 and 20 uM after 24 hrs by MTT assay in presence of ER inhibitor ICI182780. The format is functional, cell-based.
Experiment [7] deals with T1, Estrogen receptor (Rattus norvegicus). In words: Activation of ER-alpha/beta in rat H9c2 cells assessed as phosphorylated Akt level at 5,10 and 20 uM after 24 hrs by western blot analysis in presence of ER inhibitor ICI182780. The format is cell-based.
Experiment [8] has as its system H9c2. In words: Upregulation of ER-alpha expression in rat H9c2 cells after 24 hrs by western blot analysis. The format is functional, cell-based.

Active and inactive are the calls of the source. The rule behind the calls is not given here.

`COc1ccc(-c2coc3cc(O)ccc3c2=O)cc1O`: the inhibition result in experiment [1] was “Active”. In addition, the Activity entry in experiment [2] and in experiment [8] was “Dose-dependent effect” each time. For the same compound, in experiment [3], the outcome was Active. In addition, the inhibition entry in experiment [4] was “Dose-dependent effect”. The inhibition entry in experiment [5] and in experiment [6] was “inactive” throughout. In experiment [7], the result was inactive.

The values are drawn from ChEMBL document CHEMBL3739341, “Calycosin inhibits oxidative stress-induced cardiomyocyte apoptosis via activating estrogen receptor-α/β” (Bioorg Med Chem Lett, 2016).
